Assay results as given in patent publication US8633204B2 (Pfizer Inc., priority 2006, dated 2014).
Entries after “also recorded” stand apart in the source; their conditions may differ.

What was measured:
[1] = test system: phosphorylation of AKT on S473 in U87MG tumors; experiment: In vivo target modulation study, U87MG tumors; design: species or system mouse; settings: for p-Akt/Akt(%): 1 h post last dose
Protocol: (§1) In vivo target modulation studies to determine the effect of Compound 152 treatment on the phosphorylation of AKT on S473 by ELISA and S6 on S235/S236 by IHC were performed. Resected tumors were frozen on dry ice and pulverized using the FAST PREP instrument (Qbiogene). Briefly, frozen tumors were placed in Fast Prep matrix tubes, cold lysis buffer [20 mM HEPES (pH 7.5), 150 mM NaCl, 1.0 mM sodium EDTA, 1% Triton X-100, 2.5 mM sodium pyrophosphate, 1 mM sodium orthovanadate, 1 μg/ml leupeptin, and 1 mM PMSF] was added and samples were centrifuged for 5 sec, mixed and process repeated two more times. Samples were centrifuged in a cold refrigerated Eppendorf centrifuge at 14,000 RPM for 20 min. Supernatant was collected and total and phosphoAKT (S473) protein levels determined by ELISA. The extent of phosphorylation in tumors resected from treated animals was compared with that in tumors resected from vehicle-treated animals at the same time point. Plasma samples, obtained by centrifuging individual blood samples at 3000×g for 5 min at 4° C. in an Eppendorf 5417R centrifuge, were stored at −80° C. until they could be analyzed for drug concentration. Briefly, plasma samples (50 μl) or Compound 152 standards in mouse plasma were mixed with acetonitrile […]) and injected onto a LC/MS/MS system where separation occurred on a C-18 SB phenyl (5 μM, 2.1×50 mm, Agilent) reverse-phase high-performance liquid chromatography column. The amount of inhibitor and the internal standard (0.5 μM buspirone) in each mouse plasma sample was quantified based on standard curves generated using known amounts of compound. […] Time course and dose response of in vivo target modulation and plasma inhibitor concentrations were determined post last dose at the end of the efficacy study described above and data are summarized in Table 4.

U87MG tumor model = experiment: Mouse xenograft efficacy study, U87MG; format: in vivo; settings: for Growth Inhibition (%): U87 MG glioma xenograft
Protocol: (§2) The in vivo efficacy of 2-amino-8-(trans-4-hydroxycyclohexyl)-6-(6-methoxypyridin-3-yl)-4-methylpyrido[2,3-d]pyrimidin-7(8H)-one (Compound 152) disclosed in Example 53 was examined in s.c. xenograft model. Human tumor cell lines PC3 (PTEN deletion)), U87MG (PTEN deletion) and SKOV3 (PI3Kα […]) were chosen for in vivo efficacy studies due to their different genetic background and relatively high levels of phospho AKT S473 signal. Cells were implanted in the hind flank of athymic mice and tumors grew in size to 100-200 mm^3 before daily oral treatment with Compound 152 was initiated. […] For all models tested 1 mg/kg was an efficacious dose.
(§3) Animal Care: Female and male athymic mice (6-8 weeks old) weighing ˜22 g were obtained from Charles River Laboratory. Animal were housed on a 12 h light/dark cycle in the Pfizer vivarium and all procedures are conducted in accordance with the Pfizer Institutional Animal Care and Use Committee (IACUC). Animals are provided free access to rodent chow and water ad libitum and maintained under clean room conditions. Prior to study start animals acclimate for at least 48 h.
(§4) Cell lines: All cell lines were cultured at 37° C. in humidified 5% CO2 incubator. U87 MG glioblastoma tumor cell line was obtained from American Type Culture Collection (ATCC) and cultured with DMEM supplemented with 15% FBS and 2 mM glutamine. PC3 prostate cancer cell line were obtained from National Cancer Institute and cultured in RPMI media supplemented with 10% FBS and 2 mM glutamine. SKOV3 ovarian cancer cells were obtained from ATCC and passaged multiple times through mice, and cultured in McCoy's 5A media supplemented with 10% FBS and 2 mM glutamine. All cell lines were tested by University of Missouri Research Animal Diagnostic Laboratory for known species of murine viruses and mycoplasma contamination.
(§5) Mouse Xenograft Models: U87MG (glioblastoma), PC3 (prostate cancer) and SKOV3 (ovarian cancer) cell lines in culture were harvested by trypsinisation. Briefly, 2.5−4×10^6 tumor cells were suspended in the medium used to culture each cell line without serum and implanted sub-cutaneously (s.c) into the hind flank region of mice on day 0. Daily treatment with Compound 152, formulated in 10% ethanol, 40% PEG and 50% sodium citrate buffer or vehicle alone commenced 10-14 d after implantation when average tumors were 100-200 mm^3 in size. Tumors were measured twice weekly and tumor volume was calculated as a product of (length×width^2)/2. Studies were typically terminated when the tumor in the vehicle treated animals reached a size of >1500 mm3 or when judged to adversely affect the well being of the animal. […] Where applicable, percent tumor regression for each group was calculated as 100×(tumor volumeinitial−tumor volumefinal)/(tumor volumeinitial). A cohort of 12 animals was used for each dose group for efficacy studies. A representative cohort of animals were sacrificed at the times indicated, tumors resected, and a blood sample taken from the cardiac left ventricle and immediately placed in a vial primed with heparin sulfate. Typically one half of the tumor was fixed in 10% neutral buffered formalin, paraffin embedded, and sectioned for immunohistochemistry. The other half was frozen in liquid nitrogen and later processed to generate cell lysates for target modulation studies.

[2] = test system: phosphorylation of AKT on S473 in PC3 tumors; experiment: In vivo target modulation study, PC3 tumors; design: species or system mouse
Protocol: as §1

SKOV3 tumor model = experiment: Mouse xenograft efficacy study, SKOV3; format: in vivo; settings: for Growth Inhibition (%): SKOV3 ovarian xenograft
Protocol: as §2, §3, §4, §5

PC3 tumor model = experiment: Mouse xenograft efficacy study, PC3; format: in vivo
Protocol: as §2, §3, §4, §5

[3] = U87MG tumor model, daily oral treatment
[4] = SKOV3 tumor model, daily oral treatment
[5] = PC3 tumor model, daily oral treatment

COc1ccc(-c2cc3c(C)nc(N)nc3n([C@H]3CC[C@H](O)CC3)c2=O)cn1 [Compound 152, 2-amino-8-(trans-4-hydroxycyclohexyl)-6-(6-methoxypyridin-3-yl)-4-methylpyrido[2,3-d]pyrimidin-7(8H)-one]
EC50 ([1]; Mus musculus, U-87 MG, read-out: EC50 plasma concentration for pAKT S473 target modulation): 24 nM
p-Akt/Akt(%) ([1]; U87, 0.1 mg/kg): 44%
p-Akt/Akt(%) ([1]; U87, 0.3 mg/kg): 27%
p-Akt/Akt(%) ([1]; U87, 1 mg/kg): 11%
inhibition of pAKT at S473 ([1]; U87MG tumors in vivo): dose dependent inhibition
Growth Inhibition (%) (U87MG tumor model; 0.1 mg/kg/day oral): 18%
Growth Inhibition (%) (U87MG tumor model; 0.3 mg/kg/day oral): 56%
Growth Inhibition (%) (U87MG tumor model; 1.0 mg/kg/day oral): 76%
anti-tumor efficacy (U87MG tumor model; [3]): dose-dependent anti-tumor efficacy; also recorded: growth inhibition
efficacious dose (U87MG tumor model; [3]): 1 mg/kg
p-Akt/Akt(%) ([2]; PC3, 0.25 mg/kg, 3 h post last dose): 42 ± 14%
p-Akt/Akt(%) ([2]; PC3, 0.25 mg/kg, 7 h post last dose): 82 ± 18%
p-Akt/Akt(%) ([2]; PC3, 0.25 mg/kg, 24 h post last dose): 137 ± 23%
p-Akt/Akt(%) ([2]; PC3, 0.5 mg/kg, 3 h post last dose): 32 ± 4%
p-Akt/Akt(%) ([2]; PC3, 0.5 mg/kg, 7 h post last dose): 38 ± 5%
p-Akt/Akt(%) ([2]; PC3, 0.5 mg/kg, 24 h post last dose): 107 ± 6%
p-Akt/Akt(%) ([2]; PC3, 1 mg/kg, 3 h post last dose): 23 ± 10%
p-Akt/Akt(%) ([2]; PC3, 1 mg/kg, 7 h post last dose): 27 ± 9%
p-Akt/Akt(%) ([2]; PC3, 1 mg/kg, 24 h post last dose): 113 ± 15%
p-Akt/Akt(%) ([2]; PC3, 2 mg/kg, 3 h post last dose): 21 ± 5%
p-Akt/Akt(%) ([2]; PC3, 2 mg/kg, 7 h post last dose): 17 ± 7%
p-Akt/Akt(%) ([2]; PC3, 2 mg/kg, 24 h post last dose): 78 ± 9%
inhibition of pAKT at S473 ([2]; PC3 tumors in vivo): dose dependent inhibition
Growth Inhibition (%) (SKOV3 tumor model; 0.5 mg/kg/day oral): 46%
Growth Inhibition (%) (SKOV3 tumor model; 1 mg/kg/day oral): 66%
Growth Inhibition (%) (SKOV3 tumor model; 2 mg/kg/day oral): 82%
anti-tumor efficacy (SKOV3 tumor model; [4]): dose-dependent anti-tumor efficacy; also recorded: growth inhibition
efficacious dose (SKOV3 tumor model; [4]): 1 mg/kg
Growth Inhibition (%) (PC3 tumor model; PC3 prostate xenograft, 0.25 mg/kg/day oral): 45%
Growth Inhibition (%) (PC3 tumor model; PC3 prostate xenograft, 0.5 mg/kg/day oral): 62%
Growth Inhibition (%) (PC3 tumor model; PC3 prostate xenograft, 1 mg/kg/day oral): 89%
Regression (%) (PC3 tumor model; PC3 prostate xenograft, 2 mg/kg/day oral): 19%
anti-tumor efficacy (PC3 tumor model; [5]): dose-dependent anti-tumor efficacy; also recorded: regression
efficacious dose (PC3 tumor model; [5]): 1 mg/kg
